In PubChem BioAssay AID1159536 (DiRusso Lab, Biochemistry Department, University of Nebraska, 2015):
Inconclusive results are not listed. Calls of active or inactive are those of the source. How the calls were made is not given here.

Test system: Chlamydomonas reinhardtii, Nile Red lipid fluorescence, 72 h
Test: algal triacylglycerol accumulation inducers, dose response, qHTS, Chlamydomonas reinhardtii (AID 1159536)
Settings: not given
With `CC(=O)N(C1=C(Nc2ccccc2)C(=O)c2ccccc2C1=O)c1ccccc1` the EC50 was 15.2 µM (inactive). Compound `COc1cc(CN2CCN(Cc3ccccc3)CC2)cc(OC)c1` has an EC50 of 8.98 µM. For `Cc1cc(C(C)(C)C)ccc1OCCN1CCN(C)CC1`, the EC50 was 4.43 µM. Compound `C=CCn1c(SCC(=O)NCCc2ccccc2)nnc1-c1ccc(Cl)cc1Cl` has an EC50 of 4.05 µM. Compound `CCC(C)c1ccccc1OCCOCCN1CCOCC1` (stereo not given) has an EC50 of 13.1 µM. In the case of `CC(C)c1ccc(CN2CCN(C)CC2)cc1`, the EC50 is reported as 3.5 µM. For `Cc1c(NC(=O)c2c(F)c(F)c(F)c(F)c2F)c(=O)n(-c2ccccc2)n1C`, the EC50 was 19 µM (inactive). In the case of `CC(C)(Oc1ccc(Cl)cc1)C(=O)N1CCN(c2ccc(F)cc2)CC1`, the EC50 is reported as 2.13 µM (inactive). Work on `CCC(C)N1CCN(Cc2ccc([N+](=O)[O-])cc2)CC1` (stereo not given) yielded an EC50 of 10.5 µM. With `CCOc1ccc(C2=CSC3=NCCN23)cc1` the EC50 was 13.7 µM (inactive). `CCc1ccc(CN2CCC(C(=O)N(CC)Cc3ccccc3)CC2)cc1` showed an EC50 of 0.708 µM. Compound `C=CCNCC(=O)NC12CC3CC(CC(C3)C1)C2` has an EC50 of 2.81 µM. In the case of `O=C(O)C1C2C=CC(O2)C1C(=O)Nc1ccccc1F` (stereo not given), the EC50 is reported as 14.8 µM (inactive). Work on `COc1cccc(N2CCN(Cc3ccsc3)CC2)c1` yielded an EC50 of 10 µM. For `O=S(=O)(c1ccc(F)cc1)n1cccc1`, the EC50 was 0.684 µM (inactive). With `COc1ccc(CN2CCN(Cc3ccc([N+](=O)[O-])cc3)CC2)cc1OC` the EC50 was 2.49 µM. Compound `CN1CCN(Cc2ccc(-c3ccccc3Cl)o2)CC1` has an EC50 of 3.34 µM. With `O=C(c1ccc(CN2CCc3ccccc3C2)cc1)N1CCN(c2ccccc2F)CC1` the EC50 was 6.04 µM. For `c1ccc(N2CCN(CC3CCCCC3)CC2)cc1`, the EC50 was 1.03 µM. Compound `CN1CCN(CCCOc2cc(Cl)ccc2Cl)CC1` has an EC50 of 14.1 µM. Compound `Clc1cccc(N2CCN(Cc3ccsc3)CC2)c1` has an EC50 of 3.96 µM. In the case of `COc1ccc(CNC2CCCC(C)C2)cc1` (stereo not given), the EC50 is reported as 7.06 µM. `CCc1ccc(OCCOCCN2CCOCC2)cc1` showed an EC50 of 10.1 µM. Compound `Cc1cc(C)c(S(=O)(=O)N2CCN(C)CC2)cc1Br` has an EC50 of 15.8 µM. `C=C(C)CN(CC)C(=O)C1CCN(CC2CC=CCC2)CC1` (stereo not given) showed an EC50 of 2.73 µM. `COc1ccc(CN2CCN(C/C=C/c3ccccc3)CC2)cc1` gave an EC50 of 6.56 µM. Compound `Cc1ccccc1N1CCN(Cc2ccc(O)cc2)CC1` has an EC50 of 10 µM. In the case of `Cc1cccc(-c2noc(COc3ccc(Br)cc3)n2)c1`, the EC50 is reported as 9.11 µM (inactive). In the case of `Clc1ccc(OCCCCN2CCOCC2)c(Br)c1`, the EC50 is reported as 0.854 µM. `O=[N+]([O-])c1ccc(CNC2CCCCCC2)cc1` gave an EC50 of 1.88 µM. `COc1ccc(CN(C)C2CCCCC2)c(C)c1C` showed an EC50 of 0.608 µM. Work on `CCOc1ccc(CN2CCN(c3ccc(F)cc3)CC2)cc1` yielded an EC50 of 0.241 µM. `CCN(CC)CC#CCOc1ccccc1` showed an EC50 of 11.6 µM. In the case of `CC(=O)c1nc2cc([N+](=O)[O-])ccc2n1Cc1ccccc1`, the EC50 is reported as 10 µM (inactive). For `COc1ccc(C(=O)Nc2sc3c(c2C(N)=O)CCC(C)C3)c(OC)c1` (stereo not given), the EC50 was 15.8 µM (inactive). In the case of `Cc1ccc(CN2CCC(C(=O)N3CCN(c4ccccc4F)CC3)CC2)o1`, the EC50 is reported as 7.9 µM (inactive). Compound `COc1ccc(OCCCN2CCCCC2)cc1` has an EC50 of 13.8 µM. With `C/C=C(\C)CN1CCN(C/C=C/c2ccccc2)CC1` the EC50 was 1.28 µM. For `Cc1cc(OCCCCN2CCN(C)CC2)cc(C(C)C)c1`, the EC50 was 1.92 µM. `O=C1CC(N2CCN(Cc3ccc4c(c3)OCO4)CC2)C(=O)N1CCc1ccccc1` (stereo not given) showed an EC50 of 2.63 µM. For `Fc1ccc(N2CCN(Cc3ccsc3)CC2)cc1`, the EC50 was 8.16 µM. For `Cc1ccc(S(=O)(=O)n2cccn2)cc1`, the EC50 was 12.9 µM (inactive). Work on `COc1ccccc1N1CCN(Cc2ccc(F)cc2)CC1` yielded an EC50 of 2.84 µM. `CCC(C)c1ccc(OCCCN2CCN(C)CC2)cc1` (stereo not given) gave an EC50 of 0.902 µM. For `O=[N+]([O-])c1ccc(OCCCCN2CCOCC2)cc1`, the EC50 was 14.2 µM. With `O=C(Nc1ccc(Cc2ccncc2)cc1)c1cc(Br)ccc1Cl` the EC50 was 2.29 µM (inactive). With `Cc1ccc(NC(=O)CC(C)C)c(NC(=O)CC(C)C)c1` the EC50 was 7.89 µM (inactive). For `Cc1cc(Br)ccc1OCCCCN1CCN(C)CC1`, the EC50 was 3.38 µM. Work on `C1=CC2CC1CC2CN1CCN(Cc2ccco2)CC1` (stereo not given) yielded an EC50 of 2.52 µM. In the case of `O=C(NCCc1ccc(Cl)cc1)C(=O)Nc1nccs1`, the EC50 is reported as 10.2 µM (inactive). Compound `C=C(C)CN(CC)C(=O)C1CCN(Cc2ccc(Cl)cc2)CC1` has an EC50 of 0.642 µM. `Cc1ccc(CN2CCN(c3ccc(F)cc3)CC2)cc1` gave an EC50 of 0.00439 µM. For `Clc1cc(Br)ccc1OCCCN1CCOCC1`, the EC50 was 4.43 µM. In the case of `CC(=O)Nc1ccc(S(=O)(=O)Nc2cc([N+](=O)[O-])ccc2C)cc1`, the EC50 is reported as 3.21 µM (inactive). For `Cc1ccsc1/C=C(\C#N)c1nc(-c2ccc([N+](=O)[O-])cc2)cs1`, the EC50 was 14.9 µM (inactive). For `CC1CCC(N2CCN(c3ccccc3)CC2)C1` (stereo not given), the EC50 was 0.629 µM. `Cc1ccc2nc(SCc3ccccc3)c(C=O)c(=O)n2c1` gave an EC50 of 4.11 µM.

Test system: not listed separately
Test: as above
Settings: Chlamydomonas reinhardtii, Nile Red lipid fluorescence, 72 h; at 30 µM (top of the series)
In the case of `COc1cccc(CN2CCN(C(=O)c3cc(OC)c(OC)c(OC)c3)CC2)c1OC`, the fold change vs untreated, higher = more lipid is reported as 1.75 (inactive). In the case of `O=C(O)C1CCN(C(=O)c2ccc(F)cc2)CC1`, the fold change vs untreated, higher = more lipid is reported as 1.24 (inactive). For `O=C(NC1CCN(Cc2ccccc2)CC1)c1ccc(Cl)cc1Cl`, the fold change vs untreated, higher = more lipid was 12.2. In the case of `CCN1CCN(C2CCC(C(C)(C)C)CC2)CC1` (stereo not given), the fold change vs untreated, higher = more lipid is reported as 2.66 (inactive). For `Cc1c(N/C=C/C(=O)c2cccs2)c(=O)n(-c2ccccc2)n1C`, the fold change vs untreated, higher = more lipid was 1.42 (inactive). With `CCC1CCCCN1C(=O)c1ccc(Cl)cc1[N+](=O)[O-]` (stereo not given) the fold change vs untreated, higher = more lipid was 1.87 (inactive). For `O=C(Nc1ccccc1C(=O)NCc1ccccc1)c1ccc([N+](=O)[O-])cc1`, the fold change vs untreated, higher = more lipid was 2.49 (inactive). With `C=CCNC(=O)C(C)N(c1ccc(OCC)cc1)S(C)(=O)=O` (stereo not given) the fold change vs untreated, higher = more lipid was 1.69 (inactive). In the case of `COc1cc(NC(=O)C(Cl)Cl)c(OC)cc1Cl`, the fold change vs untreated, higher = more lipid is reported as 1.42 (inactive). Compound `Cc1cc(Cl)c(OCCn2ccnc2)c(Br)c1` has a fold change vs untreated, higher = more lipid of 5.38. With `CC(=O)Nc1ccc(OCC(=O)Nc2cc(Cl)cc(Cl)c2)cc1` the fold change vs untreated, higher = more lipid was 2.48 (inactive). For `Fc1ccc(N2CCN(CCc3ccccc3)CC2)cc1`, the fold change vs untreated, higher = more lipid was 9.42. Work on `Cc1ccc(N2CCN(CCc3ccccc3)CC2)cc1` yielded a fold change vs untreated, higher = more lipid of 8.09. For `COc1ccccc1Cn1c(C(C)O)nc2ccccc21` (stereo not given), the fold change vs untreated, higher = more lipid was 0.95 (inactive). For `Cc1c(C(=O)Nc2ccccc2C(=O)NCc2ccccc2)cccc1[N+](=O)[O-]`, the fold change vs untreated, higher = more lipid was 2.77 (inactive). With `Cc1cc(Br)ccc1OCC(=O)NCc1ccc2c(c1)OCO2` the fold change vs untreated, higher = more lipid was 1.4 (inactive). In the case of `Cc1sc(NC(=O)c2cccs2)c(C(=O)O)c1C`, the fold change vs untreated, higher = more lipid is reported as 1.38 (inactive). Compound `Cc1ccc(CN2CCC(C(=O)NCc3ccccc3Cl)CC2)cc1` has a fold change vs untreated, higher = more lipid of 15.2. Compound `Cc1ccc(OCCCCN2CCCC2)c(C)c1` has a fold change vs untreated, higher = more lipid of 6.28. In the case of `Cc1ccc(Cn2cnc3c(cnn3-c3ccccc3)c2=O)c(C)c1`, the fold change vs untreated, higher = more lipid is reported as 3 (inactive). With `COc1ccc(S(=O)(=O)N(CC(=O)NC(C)C)c2cc(C)cc(C)c2)cc1OC` the fold change vs untreated, higher = more lipid was 1.07 (inactive). `CC(C)(C)c1ccc(OCCCCN2CCOCC2)cc1` gave a fold change vs untreated, higher = more lipid of 3.88. For `COc1cc(-c2ccc(NC(=O)c3ccco3)c(OC)c2)ccc1NC(=O)c1ccco1`, the fold change vs untreated, higher = more lipid was 1.4 (inactive).
